A word on the MIC: it is the lowest concentration that inhibits growth of the organism.

SMILES strings stand for the structures.

Results on five molecules are retold here after patent US20250032423A1, “HERBAL BIOACTIVES BASED IMMUNOSTIMULANT FORMULATION FOR POULTRY BIRDS & CATTLE AND PREPARATION THEREOF” (Edhas Technologies Inc., priority 2023, published 2025).

A short description of test [1]: ABTS radical scavenging assay.
Test [2] can be described thus: DPPH radical scavenging assay. (In general: Loss of DPPH colour is used to gauge radical scavenging.)
Test [3] has as its system Pseudomonas aeruginosa. Nature of the test: MIC and fractional inhibitory concentration index (FICI) against Pseudomonas aeruginosa.

As for `Cc1c(C)c2c(c(C)c1O)CCC(C)(C(=O)O)O2` (stereo not drawn) [Trolox], the “IC50 (ABTS)” value in test [1] is given as 10 ppm. Moreover, the “% Inhibition (ABTS scavenging)” value in test [1] (10 ppm) stood at 54.48%; in test [1] (25 ppm), 63.01%; in test [1] (50 ppm), 73.1%; in test [1] (100 ppm) it was 86.71%; in test [1] (250 ppm) it was 89.12%; in test [1] (500 ppm) it was 94.08%. The “% Inhibition (ABTS scavenging)” value in test [1] (1000 ppm) is 99.24%.

As for `O=C1O[C@H]([C@@H](O)CO)C(O)=C1O` [Ascorbic acid], the “IC50 (DPPH)” value in test [2] is listed as 10 ppm. Besides, the “% Inhibition (DPPH scavenging)” value in test [2] (10 ppm) is 58.80%; in test [2] (25 ppm) it was 64.65%; in test [2] (50 ppm) it was 66.42%; in test [2] (100 ppm), 71.18%; in test [2] (250 ppm), 87.60%; in test [2] (500 ppm) it was 90.65%.

`Cc1ccc(C(C)C)c(O)c1` [Thymol]: in test [3], the MIC is 9200 µg/mL.

For the molecule `C=CCc1ccc(O)c(OC)c1` [Eugenol], in test [3], the MIC amounted to 10100 µg/mL.

Consider `COc1cc(/C=C/C(=O)CC(=O)/C=C/c2ccc(O)c(OC)c2)ccc1O` [Curcumin], for which, in test [3], the minimal inhibitory concentration (MIC) turned out to be 8100 µg/mL.
